Target: human ACC2 (Homo sapiens (Human), UniProt O00763)
Experiment: ACC2 assay, spectrophotometric 384 well assay (NADH-linked kinetic method)
Format: biochemical
Settings: human ACC2 construct lacking the 128 N-terminal amino acids; coupled lactate dehydrogenase/pyruvate kinase reaction, 340 nm, 25° C.
Outline: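 N-terminally truncated human ACC2 (lacking 128 residues), expressed in insect cells, was coupled to pyruvate kinase/lactate dehydrogenase, with NADH and acetyl-CoA at 2000 μM and ATP at 500 μM final. The OD340 decrease was followed over 15 min at 25 °C. Slopes were normalised to vehicle and no-acetyl-CoA controls, and IC50 came from four-parameter regression.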

Sequence of human ACC2 (O00763 129-2458): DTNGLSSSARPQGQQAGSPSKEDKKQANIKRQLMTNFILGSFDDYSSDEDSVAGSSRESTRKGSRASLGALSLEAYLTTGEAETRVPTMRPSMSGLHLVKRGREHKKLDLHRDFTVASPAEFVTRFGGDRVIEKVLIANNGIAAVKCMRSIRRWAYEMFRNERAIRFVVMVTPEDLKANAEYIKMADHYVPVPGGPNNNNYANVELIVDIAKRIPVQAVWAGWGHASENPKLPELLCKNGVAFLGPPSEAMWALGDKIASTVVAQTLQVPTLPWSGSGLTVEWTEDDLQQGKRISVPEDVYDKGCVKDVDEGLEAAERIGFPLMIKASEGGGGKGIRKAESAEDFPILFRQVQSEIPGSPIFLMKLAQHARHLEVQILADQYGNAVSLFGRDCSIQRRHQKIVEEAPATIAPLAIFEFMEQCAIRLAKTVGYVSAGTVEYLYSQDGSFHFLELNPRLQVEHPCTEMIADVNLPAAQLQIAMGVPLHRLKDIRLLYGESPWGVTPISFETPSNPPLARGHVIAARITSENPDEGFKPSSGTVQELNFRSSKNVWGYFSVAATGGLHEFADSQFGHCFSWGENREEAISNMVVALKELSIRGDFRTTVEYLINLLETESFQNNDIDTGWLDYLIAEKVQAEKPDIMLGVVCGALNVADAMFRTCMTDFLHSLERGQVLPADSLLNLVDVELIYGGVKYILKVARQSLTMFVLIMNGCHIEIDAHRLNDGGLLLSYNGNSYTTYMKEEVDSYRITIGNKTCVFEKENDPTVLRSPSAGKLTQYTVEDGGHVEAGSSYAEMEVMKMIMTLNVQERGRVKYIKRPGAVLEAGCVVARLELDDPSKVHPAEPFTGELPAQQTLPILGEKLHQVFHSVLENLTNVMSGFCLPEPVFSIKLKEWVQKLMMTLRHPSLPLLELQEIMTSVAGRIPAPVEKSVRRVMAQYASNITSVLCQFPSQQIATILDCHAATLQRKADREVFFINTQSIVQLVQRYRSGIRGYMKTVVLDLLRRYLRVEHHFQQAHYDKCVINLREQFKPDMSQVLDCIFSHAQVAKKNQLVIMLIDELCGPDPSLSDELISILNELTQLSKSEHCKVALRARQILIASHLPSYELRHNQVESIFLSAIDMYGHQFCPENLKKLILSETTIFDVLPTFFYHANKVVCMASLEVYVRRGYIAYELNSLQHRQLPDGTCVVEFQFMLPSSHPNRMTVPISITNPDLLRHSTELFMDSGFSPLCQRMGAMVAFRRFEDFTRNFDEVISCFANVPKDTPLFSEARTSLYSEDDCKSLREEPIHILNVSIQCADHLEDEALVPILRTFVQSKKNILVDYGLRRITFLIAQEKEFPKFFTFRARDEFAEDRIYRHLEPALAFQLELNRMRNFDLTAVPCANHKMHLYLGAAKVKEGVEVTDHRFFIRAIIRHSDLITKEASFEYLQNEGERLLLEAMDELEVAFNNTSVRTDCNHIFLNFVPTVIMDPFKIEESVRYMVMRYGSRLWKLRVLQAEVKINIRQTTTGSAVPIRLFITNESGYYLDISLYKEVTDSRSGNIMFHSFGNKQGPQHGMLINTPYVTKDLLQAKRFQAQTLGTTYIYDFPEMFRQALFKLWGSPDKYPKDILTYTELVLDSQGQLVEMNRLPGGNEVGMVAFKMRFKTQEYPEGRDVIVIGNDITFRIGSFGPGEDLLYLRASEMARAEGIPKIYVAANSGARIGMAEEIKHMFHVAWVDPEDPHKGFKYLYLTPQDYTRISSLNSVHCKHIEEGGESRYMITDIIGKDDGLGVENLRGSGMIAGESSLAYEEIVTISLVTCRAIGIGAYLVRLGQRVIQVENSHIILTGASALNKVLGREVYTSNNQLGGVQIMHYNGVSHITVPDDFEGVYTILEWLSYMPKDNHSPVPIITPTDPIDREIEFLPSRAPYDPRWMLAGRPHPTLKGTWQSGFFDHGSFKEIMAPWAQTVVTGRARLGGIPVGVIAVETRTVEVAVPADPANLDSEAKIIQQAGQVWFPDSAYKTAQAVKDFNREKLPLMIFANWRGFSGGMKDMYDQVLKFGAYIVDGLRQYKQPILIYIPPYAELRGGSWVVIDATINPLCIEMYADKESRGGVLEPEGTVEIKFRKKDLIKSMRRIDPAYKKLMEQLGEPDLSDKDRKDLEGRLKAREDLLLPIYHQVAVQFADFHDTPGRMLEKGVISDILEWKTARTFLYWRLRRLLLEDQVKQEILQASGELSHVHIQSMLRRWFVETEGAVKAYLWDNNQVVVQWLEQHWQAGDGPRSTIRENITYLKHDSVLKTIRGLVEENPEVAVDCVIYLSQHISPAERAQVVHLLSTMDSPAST

Compound | IC50
COC(C)(C)COc1nccc(N2CC[C@@H](Oc3ccc([C@H](C)NC(C)=O)cc3)C2)c1F [Example 9.87] | 0.28 µM
CC(=O)N[C@@H](C)c1ccc(O[C@@H]2CCN(c3cccc(N4CCCCC4)n3)C2)cc1 [Example 10.4] | 0.261 µM
CC(=O)N[C@@H](C)c1ccc(O[C@@H]2CCN(c3nc(N4CCCCC4)c(F)cc3F)C2)cc1 [Example 10.6] | 0.827 µM
CCCN(C)c1nc(N2CC[C@@H](Oc3ccc([C@H](C)NC(C)=O)cc3)C2)c(F)cc1F [Example 10.7] | 0.505 µM
CC(=O)N[C@@H](C)c1ccc(O[C@@H]2CCN(c3nc(N4CCCC4)c(F)cc3F)C2)cc1 [Example 10.8] | 0.594 µM
CC(=O)N[C@@H](C)c1ccc(O[C@@H]2CCN(c3ccnc(N(C)C4CCCC4)c3)C2)cc1 [Example 10.9] | 0.849 µM
CCNc1cccc(N2CC[C@@H](Oc3ccc([C@H](C)NC(C)=O)cc3)C2)n1 [Example 10.12] | 0.691 µM
CC(=O)N[C@@H](C)c1ccc(O[C@@H]2CCN(c3cccc(N4CCOCC4)n3)C2)cc1 [Example 10.13] | 0.498 µM
CC(=O)N[C@@H](C)c1ccc(O[C@@H]2CCN(c3nc(N(C)C)ccc3F)C2)cc1 [Example 10.18] | 0.855 µM
CNc1cccc(N2CC[C@@H](Oc3ccc([C@H](C)NC(C)=O)cc3)C2)n1 [Example 10.21] | 0.963 µM
CC(=O)N[C@@H](C)c1ccc(O[C@@H]2CCN(c3cc(N4CCOCC4)ncc3F)C2)cc1 [Example 10.22] | 0.552 µM
CC(=O)N[C@@H](C)c1ccc(O[C@@H]2CCN(c3cc(N(C)C)ncc3F)C2)cc1 [Example 10.24] | 0.285 µM
CC(=O)N[C@@H](C)c1ccc(O[C@@H]2CCN(c3cccc(N(C)CC4CCOC4)n3)C2)cc1 (some centres unmarked) [Example 10.25] | 0.331 µM
CC(=O)N[C@@H](C)c1ccc(O[C@@H]2CCN(c3cc(NCC4CC4)ncc3F)C2)cc1 [Example 10.26] | 0.755 µM
CC(=O)N[C@@H](C)c1ccc(O[C@@H]2CCN(c3cccc(N(C)C(C)C)n3)C2)cc1 [Example 10.31] | 0.314 µM
CC(=O)N[C@@H](C)c1ccc(O[C@@H]2CCN(c3cccc(N4CCC5(CC5)C4)n3)C2)cc1 [Example 10.32] | 0.245 µM
CC(=O)N[C@@H](C)c1ccc(O[C@@H]2CCN(c3cccc(N4CCC(F)(F)CC4)n3)C2)cc1 [Example 10.34] | 0.464 µM
CC(=O)N[C@@H](C)c1ccc(O[C@@H]2CCN(c3cccc(N(C)CC(C)O)n3)C2)cc1 (some centres unmarked) [Example 10.35] | 0.853 µM

Compound | IC50
CC(=O)N[C@@H](C)c1ccc(O[C@@H]2CCN(c3cccc(N(C)CC(C)C)n3)C2)cc1 [Example 10.36] | 0.399 µM
COC1CCCN(c2cccc(N3CC[C@@H](Oc4ccc([C@H](C)NC(C)=O)cc4)C3)n2)C1 (some centres unmarked) [Example 10.37] | 0.325 µM
CC(=O)N[C@@H](C)c1ccc(O[C@@H]2CCN(c3cccc(N4CCOC(C)(C)C4)n3)C2)cc1 [Example 10.38] | 0.369 µM
CC(=O)N[C@@H](C)c1ccc(O[C@@H]2CCN(c3cccc(N(C)C4CCOCC4)n3)C2)cc1 [Example 10.39] | 0.36 µM
CC(=O)N[C@@H](C)c1ccc(O[C@@H]2CCN(c3cccc(N4CCCOCC4)n3)C2)cc1 [Example 10.40] | 0.528 µM
COC[C@H]1CCCN1c1cccc(N2CC[C@@H](Oc3ccc([C@H](C)NC(C)=O)cc3)C2)n1 [Example 10.41] | 1.02 µM
COC1CCN(c2cccc(N3CC[C@@H](Oc4ccc([C@H](C)NC(C)=O)cc4)C3)n2)CC1 [Example 10.42] | 0.759 µM
CCN(CCO)c1cccc(N2CC[C@@H](Oc3ccc([C@H](C)NC(C)=O)cc3)C2)n1 [Example 10.43] | 0.77 µM
CC(=O)N[C@@H](C)c1ccc(O[C@@H]2CCN(c3cccc(N4CC=CC4)n3)C2)cc1 [Example 10.44] | 0.665 µM
CC(=O)N[C@@H](C)c1ccc(O[C@@H]2CCN(c3cccc(N4CCC(C)(O)C4)n3)C2)cc1 (some centres unmarked) [Example 10.47] | 0.455 µM
CC(=O)N[C@@H](C)c1ccc(O[C@@H]2CCN(c3cccc(N4CCC(C)(C)C4)n3)C2)cc1 [Example 10.48] | 0.256 µM
CC(=O)N[C@@H](C)c1ccc(O[C@@H]2CCN(c3cccc(N4CCOCC4C)n3)C2)cc1 (some centres unmarked) [Example 10.49] | 0.785 µM
CC(=O)N[C@@H](C)c1ccc(O[C@@H]2CCN(c3ccnc(NCC(C)(C)O)c3F)C2)cc1 [Example 10.53] | 0.215 µM
CC(=O)N[C@@H](C)c1ccc(O[C@@H]2CCN(c3ccc(OCC(F)F)cn3)C2)cc1 [Example 11.1, N—((S)-1-(4-((R)-1-(5-(2,2-Difluoroethoxy)pyridin-2-yl)pyrrolidin-3-yloxy)phenyl)ethyl)acetamide] | 0.51 µM
CC(=O)N[C@@H](C)c1ccc(O[C@@H]2CCN(c3ccc(OCC(F)(F)C(F)F)cn3)C2)cc1 [Example 11.2] | 0.87 µM
C[C@H](NC=O)c1ccc(O[C@@H]2CCN(c3cccc(C(F)(F)F)n3)C2)cc1 [Example 12, N—((S)-1-(4-((R)-1-(6-(Trifluoromethyl)pyridin-2-yl)pyrrolidin-3-yloxy)phenyl)ethyl) formamide] | 0.888 µM
Cc1nc(N)sc1C(=O)N[C@@H](C)c1ccc(O[C@@H]2CCN(c3ccc(OCC4CC4(F)F)cn3)C2)cc1 (stereo partly drawn) [Example 13, 2-Amino-N—((1S)-1-(4-((3R)-1-(5-((2,2-difluorocyclopropyl)methoxy)pyridin-2-yl)pyrrolidin-3-yloxy)phenyl)ethyl)-4-methylthiazole-5-carboxamide] | 0.24 µM

Now from value to molecule:

IC50 | Compound
0.058 µM | CC(=O)N[C@@H](C)c1ccc(O[C@@H]2CCN(c3ccnc(OCC(C)(F)F)c3F)C2)cc1 [Example 9.85]
0.187 µM | CCOc1nccc(N2CC[C@@H](Oc3ccc([C@H](C)NC(C)=O)cc3)C2)c1F [Example 9.86]
0.177 µM | CC(=O)N[C@@H](C)c1ccc(O[C@@H]2CCN(c3ccnc(OCC(C)(C)O)c3Cl)C2)cc1 [Example 9.88]
0.145 µM | CC(=O)N[C@@H](C)c1ccc(O[C@@H]2CCN(c3cccc(N(C)C)n3)C2)cc1 [Example 10.1, N—((S)-1-(4-((R)-1-(6-(Dimethylamino)pyridin-2-yl)pyrrolidin-3-yloxy)phenyl)ethyl)acetamide]
0.208 µM | CC(=O)N[C@@H](C)c1ccc(O[C@@H]2CCN(c3cccc(N(C)CC4CC4)n3)C2)cc1 [Example 10.2]
0.153 µM | CC(=O)N[C@@H](C)c1ccc(O[C@@H]2CCN(c3cccc(N4CCCC4)n3)C2)cc1 [Example 10.3]
0.182 µM | CCCN(C)c1cccc(N2CC[C@@H](Oc3ccc([C@H](C)NC(C)=O)cc3)C2)n1 [Example 10.5]
0.115 µM | CC(=O)N[C@@H](C)c1ccc(O[C@@H]2CCN(c3cccc(N4CCC(C)C4)n3)C2)cc1 (some centres unmarked) [Example 10.10]
0.209 µM | CC(=O)N[C@@H](C)c1ccc(O[C@@H]2CCN(c3cccc(N4CCC4)n3)C2)cc1 [Example 10.11]
0.045 µM | CCN(C)c1nccc(N2CC[C@@H](Oc3ccc([C@H](C)NC(C)=O)cc3)C2)c1F [Example 10.14]
0.15 µM | CC(=O)N[C@@H](C)c1ccc(O[C@@H]2CCN(c3ccnc(N4CCOCC4)c3F)C2)cc1 [Example 10.15]
0.035 µM | CC(=O)N[C@@H](C)c1ccc(O[C@@H]2CCN(c3ccnc(N4CCCC4)c3F)C2)cc1 [Example 10.16]
0.097 µM | CC(=O)N[C@@H](C)c1ccc(O[C@@H]2CCN(c3ccnc(N(C)C)c3F)C2)cc1 [Example 10.17]
0.035 µM | CCN(CC)c1nccc(N2CC[C@@H](Oc3ccc([C@H](C)NC(C)=O)cc3)C2)c1F [Example 10.19]
0.167 µM | CC(=O)N[C@@H](C)c1ccc(O[C@@H]2CCN(c3cc(N4CCCC4)ncc3F)C2)cc1 [Example 10.20]
0.087 µM | CCN(C)c1cc(N2CC[C@@H](Oc3ccc([C@H](C)NC(C)=O)cc3)C2)c(F)cn1 [Example 10.23]
0.123 µM | CCN(CC)c1cccc(N2CC[C@@H](Oc3ccc([C@H](C)NC(C)=O)cc3)C2)n1 [Example 10.27]
0.142 µM | COCCN(C)c1cccc(N2CC[C@@H](Oc3ccc([C@H](C)NC(C)=O)cc3)C2)n1 [Example 10.28]
0.17 µM | CC(=O)N[C@@H](C)c1ccc(O[C@@H]2CCN(c3cccc(N(C)C4CCCC4)n3)C2)cc1 [Example 10.29]
0.154 µM | CCN(C)c1cccc(N2CC[C@@H](Oc3ccc([C@H](C)NC(C)=O)cc3)C2)n1 [Example 10.30]
0.133 µM | CC(=O)N[C@@H](C)c1ccc(O[C@@H]2CCN(c3cccc(N4CCCC4C)n3)C2)cc1 (some centres unmarked) [Example 10.33]
0.165 µM | CC(=O)N[C@@H](C)c1ccc(O[C@@H]2CCN(c3cccc(N(C)C[C@H]4CCCO4)n3)C2)cc1 [Example 10.45]
0.175 µM | COC[C@@H]1CCCN1c1cccc(N2CC[C@@H](Oc3ccc([C@H](C)NC(C)=O)cc3)C2)n1 [Example 10.46]
0.053 µM | CC(=O)N[C@@H](C)c1ccc(O[C@@H]2CCN(c3ccnc(NCC4(O)CCC4)c3F)C2)cc1 [Example 10.50]
0.065 µM | CC(=O)N[C@@H](C)c1ccc(O[C@@H]2CCN(c3ccnc(NCC(C)(C)O)c3Cl)C2)cc1 [Example 10.51]
0.08 µM | CC(=O)N[C@@H](C)c1ccc(O[C@@H]2CCN(c3ccnc(N4CCC(C)(O)C4)c3F)C2)cc1 (some centres unmarked) [Example 10.52]
0.114 µM | CC(=O)N[C@@H](C)c1ccc(O[C@@H]2CCN(c3ccnc(N4CCC(C)(O)C4)c3Cl)C2)cc1 (some centres unmarked) [Example 10.54]
0.057 µM | CC(=O)N[C@@H](C)c1ccc(O[C@@H]2CCN(c3ccnc(NCC4(O)CCC4)c3Cl)C2)cc1 [Example 10.55]
0.131 µM | CC(=O)N[C@@H](C)c1ccc(O[C@@H]2CCN(c3ccc(OCCCF)cn3)C2)cc1 [Example 11.3]
0.058 µM | COc1c(N2CC[C@@H](Oc3ccc([C@H](C)NC(C)=O)cc3)C2)ccnc1OCC(F)F [Example 14.1, N—((S)-1-(4-((R)-1-(2-(2,2-Difluoroethoxy)-3-methoxypyridin-4-yl)pyrrolidin-3-yloxy)phenyl)ethyl)acetamide]
